In publication PMC6648477 (ACS Omega, 2019):
Read-outs that look alike come from different tables or passages of the source.

How the values were obtained:
mMcl-1 = mMcl-1 (Mus musculus, UniProt P97287); experiment: 1H,15N HSQC NMR titration, Mcl-1; assay type: binding; conditions: Mcl-1 Kd by 1H,15N HSQC NMR (N)
double His-TEV-hMcl-1 = double His-TEV-hMcl-1 (Homo sapiens, UniProt Q07820); experiment: SPR direct binding, Mcl-1
hMcl-1 = hMcl-1 (Homo sapiens, UniProt Q07820); experiment: FP assay, displacement of F-Puma from hMcl-1; assay type: binding
Sequence of hMcl-1 (Q07820 171-327 limits assumed): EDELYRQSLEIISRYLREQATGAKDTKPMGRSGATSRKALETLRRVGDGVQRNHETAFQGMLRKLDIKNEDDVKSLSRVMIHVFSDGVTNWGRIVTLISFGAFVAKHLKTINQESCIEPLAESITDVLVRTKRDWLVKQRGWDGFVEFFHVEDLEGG

hBcl-2 = hBcl-2 (Homo sapiens, UniProt P10415); experiment: FP assay, displacement of F-Puma from hBcl-2; assay type: binding
Sequence of hBcl-2 (P10415 1-207): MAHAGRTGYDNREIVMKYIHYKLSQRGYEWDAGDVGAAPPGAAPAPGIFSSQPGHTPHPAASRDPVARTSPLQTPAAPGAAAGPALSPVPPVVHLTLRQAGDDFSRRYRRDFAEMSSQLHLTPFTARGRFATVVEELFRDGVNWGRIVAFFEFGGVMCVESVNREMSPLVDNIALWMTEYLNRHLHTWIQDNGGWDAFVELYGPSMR

[1] = biological target: Unmodified human Bcl-2 residues 1-207 (hBcl-2) (human, UniProt P10415 1-207); experiment: fluorescence polarisation
Sequence of Unmodified human Bcl-2 residues 1-207 (hBcl-2) (P10415 1-207): as above

[2] = read-out: Bcl-2 eKi, FP assay, NM = not measurable at top concentration (2.5 mM or solubility limit)

Sequence of mMcl-1 (P97287 152-308 limits assumed): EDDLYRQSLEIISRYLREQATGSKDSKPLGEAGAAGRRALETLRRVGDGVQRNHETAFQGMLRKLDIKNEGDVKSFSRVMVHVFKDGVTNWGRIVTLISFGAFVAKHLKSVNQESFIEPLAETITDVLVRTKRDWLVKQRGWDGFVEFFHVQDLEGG
Sequence of double His-TEV-hMcl-1 (Q07820 171-327 limits assumed): as the sequence (Q07820 171-327 limits assumed) above

| Molecule | Kd (mMcl-1) [µM] | Kd (double His-TEV-hMcl-1) [µM] | Ki (hMcl-1) [µM] | Ki (hBcl-2) [µM] | Ki (hBcl-2; [2]) [µM] | binding result [1] |
| --- | --- | --- | --- | --- | --- | --- |
| O=C(O)c1csc(C2CNc3ccccc3O2)n1 (stereo not drawn) [Compound 23] | 360 |  | 500 |  | > 2500 |  |
| CCN1CC(c2nc(C(=O)O)cs2)Oc2ccccc21 (stereo not drawn) [Compound 24] | 220 |  | 20 | 500 |  |  |
| O=C(O)c1csc([C@@H]2CN(Cc3ccccc3)c3ccccc3O2)n1 [Compound 27] | 140 |  | 40 |  | > 2500 |  |
| RGEEEQWAREIGAQLRRMADDLN [Puma peptide] |  |  |  |  |  | binds |

More lines, in order of falling Kd (mMcl-1), values ahead:

| Kd (mMcl-1) [µM] | Kd (double His-TEV-hMcl-1) [µM] | Ki (hMcl-1) [µM] | Ki (hBcl-2) [µM] | Ki (hBcl-2; [2]) [µM] | binding result [1] | Molecule |
| --- | --- | --- | --- | --- | --- | --- |
| 110 |  | 30 |  | > 2500 |  | O=C(O)c1csc([C@H]2CN(Cc3ccccc3)c3ccccc3O2)n1 [Compound 26] |
| 85 | 140 | 40 | 80 |  |  | O=C(O)c1nc(C2COc3ccccc3O2)sc1Cc1ccccc1 (stereo not drawn) [Compound 22] |
| 40 | 450 | 40 | 800 |  |  | O=C(O)c1csc(C2CN(Cc3ccccc3)c3ccccc3O2)n1 (stereo not drawn) [Compound 25] |
